Data as given in ChEMBL document CHEMBL1130724, “Synthesis and biological activity of [Tic5] didemnin B” (Bioorg Med Chem Lett, 1998).

Species: Oryctolagus cuniculus
Test: Compound was tested for inhibitory effect on protein biosynthesis in rabbit reticulocyte lysates
Type: functional

| IC50 | Compound |
| --- | --- |
| 2.68 µM | CC[C@H](C)[C@H]1NC(=O)[C@@H](NC(=O)[C@@H](CC(C)C)N(C)C(=O)C2CCCN2C(=O)[C@H](C)O)[C@@H](C)OC(=O)[C@@H]2Cc3ccccc3CN2C(=O)[C@@H]2CCCN2C(=O)[C@H](CC(C)C)NC(=O)[C@@H](C)C(=O)[C@H](C(C)C)OC(=O)C[C@@H]1O (some centres not stated) |
| 9 µM | CC[C@H](C)[C@H]1NC(=O)[C@@H](NC(=O)[C@@H](CC(C)C)N(C)C(=O)C2CCCN2C(=O)[C@H](C)O)[C@@H](C)OC(=O)[C@H](CC(C)C)N(C)C(=O)[C@@H]2CCCN2C(=O)[C@H](CC(C)C)NC(=O)[C@@H](C)C(=O)[C@H](C(C)C)OC(=O)C[C@@H]1O (some centres not stated) [[N-ME LEU5] DIDEMNIN B] |
